# Data taken from US20220192955A1, “AZOXYSTROBIN EFFICACY IN SCALP HEALTH” (The Procter & Gamble Company, priority 2020, published 2022).
# Marks after values point to notes of the source that are not given here.
# Key:
# [1] = system: human scalp (dandruff); test: Self-assessment questionnaire for itch perception; type: in vivo
# Protocol: Subjects are enrolled in a double-blind, randomized study for all test groups and have Baseline and Week 3 measurements of scalp health taken for flaking, itch and scalp health endpoints. Subjects take home a test product(s) and are instructed on use of test products throughout the study. Test products are solubilized in a hydroalcoholic leave-on formulation. Azoxystrobin raw material is sourced from AK Scientific Inc. (Union City, Calif.) as >97% pure. Azoxystrobin scalp treatment is prepared from a slurry of azoxystrobin in ethanol that is formulated to 0.1% (w/v) in a base chassis of 50% ethanol, 0.35% Ultrez 21 (rheology modifier), 0.05% neutrol TE and water (q.s.). Vehicle scalp treatment is prepared similarly without the addition of azoxystrobin raw material. Subjects apply either azoxystrobin or vehicle scalp treatments daily for 3 weeks. Self-assessment questionnaires for itch perception are administered to each subject at Baseline and Week 3. Itch perception is quantified by each subject as severity of symptoms over the past 24 hours on a 7 point scale: 0=none, 1=slight, 2=slight to moderate, 3=moderate, 4=moderate to severe; 5=severe; 6=very severe.
# [2] = system: keratin 1, keratin 10; test: Scalp tape strip barrier integrity: keratins 1 and 10; type: in vivo, human
# Protocol: (§1) Subjects are enrolled in a double-blind, randomized study for all test groups and have Baseline and Week 3 measurements of scalp health taken for flaking, itch and scalp health endpoints. Subjects take home a test product(s) and are instructed on use of test products throughout the study. Test products are solubilized in a hydroalcoholic leave-on formulation. Azoxystrobin raw material is sourced from AK Scientific Inc. (Union City, Calif.) as >97% pure. Azoxystrobin scalp treatment is prepared from a slurry of azoxystrobin in ethanol that is formulated to 0.1% (w/v) in a base chassis of 50% ethanol, 0.35% Ultrez 21 (rheology modifier), 0.05% neutrol TE and water (q.s.). […] Biomarkers of scalp health, including biomarkers of inflammation, itch, oxidative stress and barrier integrity are assessed by non-invasive tape strip sampling of the scalp surface to determine therapeutic resolution. All biomarkers are analyzed from D-Squame® scalp tape samples that are collected from the scalp of subjects before and after scalp treatment with either azoxystrobin or vehicle (Baseline, and Week 3 respectively). These are extracted and analyzed according to published methods (International Journal of Dermatology 2011, 50, 102-113, incorporated by reference herein). […] Biochemical markers of skin/scalp barrier integrity are analyzed to evaluate improvements on barrier health. […]
# [3] = cited from earlier work
# [4] = system: Myeloperoxidase; test: Scalp tape strip myeloperoxidase protein; type: in vivo, human
# Protocol: as §1, with “Myeloperoxidase protein is” for “Biochemical markers of skin/scalp barrier integrity are”, “determine the impact of scalp treatment oxidative stress and potential oxidative damage.” for “evaluate improvements on barrier health.”
# [5] = 0.1% leave-on daily, Week 3, scalp tape strips
smiles,measurement,setting,value
CO/C=C(/C(=O)OC)c1ccccc1Oc1cc(Oc2ccccc2C#N)ncn1 [Azoxystrobin],Mean Itch Severity at Week 3,"[1]; 7 point scale 0-6, Common Baseline Severity = 3.1, 0.1% leave-on daily",1.5*
same,reduction in itch perception,[1]; compared to a placebo control,48%
same,"Keratins-1,10 % Change from Baseline",[2]; [5],+86.0* %
same,increase in keratins 1 and 10,[2]; compared to a placebo control,86%
same,solubility in water,[3],low solubility in water
same,Myeloperoxidase Results % Change from Baseline,[4]; [5],63.7* %
same,reduction in myeloperoxidase,[4]; compared to a placebo control,64%
